{
  "source": "patent US5623080A",
  "about": "“Fluorone and pyronin Y derivatives” (Spectra Group Limited, Inc., priority 1995, dated 1997)",
  "key": {"pKa": {"test": "pKa", "format": "physicochemical", "text": "(§1) In Table 2 below, the properties of the foregoing initiators are shown: […]"}, "depth of cure": {"test": "depth of cure", "settings": "other fluorone dyes", "text": "One of the advantages of the fluorone dye photoinitiators in this invention is the depth of the cure that is obtainable. This is in contrast to UV photoinitators that causes a \"screening\" effect which prevents the UV light from penetrating beyond a certain […] depth, usually several millimeters. By contrast, the fluorone dye bleaches as it photoinitiates and is concommitantly converted into a non-visible absorbing species thus allowing more visible light to penetrate which continues the cure. This cascading bleaching effect permits substantial depth of cure which can easily reach several inches.\nAn acrylate monomer mixture was composed of 15 parts urethane diacrylate, 20 parts TPGPA, 40 parts TMPTA and 15 parts DPHPA, and a 20 to 1 weight ratio of NPG coinitiator to DIEF or DIBF fluorone dye. For dye concentrations of 0.01, 0.05 and 0.1 weight, all the formulations cured to a depth of 3 cm in 30 seconds when exposed to a 350 watt tungsten halogen light which provides about 500 mw/cm^2 irradiance. When the irradiance was increased to about 2 watts/cm^2 cure speed was shortened to 5 seconds for the same depth.\nAn acrylate mixture was composed of 60% urethane diacrylate, 30% DPHPA, 10% BDDA, and 0.05 weight % of DIEF or DIBF fluorone dye with 2 weight % of DIDMA. The formulation cure to a depth greater than 1 cm in 10 seconds when exposed to a 75 watt tungsten halogen lamp which provided an irradiance of about 260 mw/cm^2.\nAn acrylate mixture was composed of 33% TMPTA, 33% DPHPA, 33% Epoxy acrylate, and 2% of DIDMA with either 0.01, 0.05 or 0.1 weight % of DIEF. All samples cured to a depth greater than 1 cm in 10 seconds when exposed to a 75 watt tungsten halogen.\nAn acrylate mixture was composed of 70% urethane diacrylate, 5% DPHPA, 25% BDDA, and 2% DIDMA with either 0.01, 0.03 or 0.1 weight % DIEF. The 0.01 and 0.03 samples cured after 2 passes through a 300 watt per inch medium pressure mercury arc lamp at a speed of 50 feet/minute to a depth greater than 3 mm. The 0.1 sample cured to a depth of greater than 1.5 mm."}, "pencil hardness": {"test": "pencil hardness", "protocol": "(§2) To a resin formulation consisting of 15 parts urethane diacrylate, 15 parts DPHPA, 20 parts TPGDA and 40 parts TMPTA was added DIDMA, initiator and (4-octyloxyphenyl)phenyliodonium hexafluoroantimonate (OPPI). The samples were coated to a thickness of 15 microns and exposed to a 75 W tungsten halogen dental lamp (focused through an optical fiber) at a distance of 0.75 inch at which the Light intensity was about 0.40 W/cm^2. The molar ratios are indicative of the amounts of fluorone to onium salt to amine coinitiator. The double bond conversion was determined by FTIR spectroscopy. The pencil hardness of a given test sample is measured by holding a pencil at a 45° angle to the sample and drawing across it towards the person testing it. Using the pencils in an order from softest to hardest, the first pencil that scratches the surface is assigned as the pencil hardness of the sample. The pencil hardness scale is as follows from softest to hardest: 4B, 3B, 2B, B, HB, H, 2H, 3H, 4H, 6H. For instance, if a 2H pencil is the first pencil to scratch the surface then the pencil hardness is 2H.\nAt the extreme ends of the scale, it is impossible to determine the actual pencil hardness. […] Likewise, if the 4B pencil scratches the sample, the only assignment that can be made is <4B, unless it is a lot softer than 4B in which case a <<4B can be assigned. A pencil hardness of 4H is generally considered satisfactory. Pencil hardness data was greater than 6H after 30 seocnd exposure for all samples except for the control samples without amine (1:2:0). The controls were all less than 4B an 0.05 wt %, 0.10 wt %, and 0.15 wt %.\nPhotosensitive compositions were prepared from the resin formulation of Example 35 containing 1% NPG and 0.05% DIBF or 0.05% DIEF. The samples were exposed under the conditions shown in the following table and pencil hardness was measured.\nDiphenyliodonium hexafluoroantimonate was added to DIBF samples.\nSamples were also prepared using 1% DIDMA in addition to the fluorone for a 20:1 weight ratio.\nSamples were also prepared from the same resin formulation containing 0.1% DIBF in addition to the coinitiator listed in the following Table 9 with the exposure condition and pencil hardness results shown.\nUsing the resin formulation of Example 36, photosensitive compositions were prepared using TIHF, DIDMA and OPPI at a concentration of 0.21% and in the molar ratios shown in Table 10 which follows. Exposure was conducted with the dental lamp at a distance of 1 inch from the sample to provide an intensity of about 0.26 W/cm^2. Molar ratios are fluorone:onium salt:amine."}, "[1]": {"test": "absorption wavelength (λmax) and extinction (ε)", "format": "physicochemical", "settings": "for λmax in EtOH (first value) / ε (first value): Table 1, EtOH; for ε (first value): at first λmax, in M-1cm-1 (unit assumed); for λmax: synthesis example"}, "[2]": {"test": "oxidation and reduction potentials (Eox, Ered)", "format": "physicochemical", "settings": "in V (unit assumed)", "text": "as §1"}, "fluorescence (λf, φf)": {"test": "fluorescence (λf, φf)", "format": "physicochemical", "text": "In Table 2 below, the properties of the foregoing initiators are shown:\nEntries in the table are in the solvents according to the following order."}, "solubility": {"test": "solubility", "format": "physicochemical"}, "film speed": {"test": "film speed", "settings": "addition of coinitiator to onium salt composition", "text": "Examples of onium salts useful in the invention can be found in published European Patent Application 0 408227A1. The preferred onium salts for use in the invention are diphenyliodonium salts such as diphenyliodonium hexafluorophosphate, arsenates, antimonates, etc., and, more particularly,hexafluoro-antimonate. Onium salts of simple anions such as chlorides, bromides, etc. are also useful in free radical polymerizable compositions. A particularly preferred onium salt is OPPI below. Addition of a coinitiator such as NPG improves film speed, pencil hardness and double bond conversion. A particularly preferred initiator system is a combination of an iodofluorone in accordance with the invention such as TIHF or DIBF, an amine such as NPG or DIDMA and an onium salt. A preferred molar ratio of fluorone to onium salt to amine is about 1:2:3. […] These onium salt formulations are illustrated in the following Examples 35-37."}, "[3]": {"test": "double bond conversion (C=C% Conversion) by FTIR", "settings": "addition of coinitiator to onium salt composition", "protocol": "as §2"}},
  "note": "Read-outs that look alike come from different tables or passages of the source.",
  "data": [
    {"compound": "O=c1c(I)cc2cc3cc(I)c(O)c(I)c3oc-2c1I", "note": "[TIHF, 3-hydroxy-2,4,5,7-tetraiodo-6-fluorone]", "values": [
      {"measurement": "pKa", "setting": "pKa", "value": 4.08},
      {"measurement": "depth of cure results", "setting": "depth of cure", "value": "have also been observed"},
      {"measurement": "Pencil hardness", "setting": "pencil hardness; 0.21%, TIHF:OPPI:DIDMA (1:1:0), dental lamp 60 sec.", "value": 4, "unit": "H"},
      {"measurement": "Pencil hardness", "setting": "pencil hardness; 0.21%, TIHF:OPPI:DIDMA (1:1:1), dental lamp 60 sec.", "value": "5-6H"},
      {"measurement": "Pencil hardness", "setting": "pencil hardness; 0.21%, TIHF:OPPI:DIDMA (1:1:5), dental lamp 60 sec.", "value": "> 6", "unit": "H"},
      {"measurement": "Pencil hardness", "setting": "pencil hardness; 0.21%, TIHF:OPPI:DIDMA (1:1:10), dental lamp 60 sec.", "value": "> 6", "unit": "H"},
      {"measurement": "Pencil hardness", "setting": "pencil hardness; 0.21%, TIHF:OPPI:DIDMA (1:1:33), dental lamp 60 sec.", "value": "> 6", "unit": "H"},
      {"measurement": "Pencil hardness", "setting": "pencil hardness; 0.21%, TIHF:OPPI:DIDMA (1:2:0), dental lamp 60 sec.", "value": "5-6H"},
      {"measurement": "Pencil hardness", "setting": "pencil hardness; 0.21%, TIHF:OPPI:DIDMA (1:2:5), dental lamp 60 sec.", "value": "> 6", "unit": "H"},
      {"measurement": "Pencil hardness", "setting": "pencil hardness; 0.21%, TIHF:OPPI:DIDMA (1:2:10), dental lamp 60 sec.", "value": "> 6", "unit": "H"},
      {"measurement": "Pencil hardness", "setting": "pencil hardness; 0.21%, TIHF:OPPI:DIDMA (1:2:33), dental lamp 60 sec.", "value": "> 6", "unit": "H"},
      {"measurement": "Pencil hardness", "setting": "pencil hardness; 0.21%, TIHF:OPPI:DIDMA (1:5:)), dental lamp 60 sec.", "value": "5-6H"},
      {"measurement": "Pencil hardness", "setting": "pencil hardness; 0.21%, TIHF:OPPI:DIDMA (1:10:0), dental lamp 60 sec.", "value": "5-6H"},
      {"measurement": "λmax in EtOH (first value)", "setting": "[1]", "value": 536},
      {"measurement": "ε (first value)", "setting": "[1]", "value": 91200},
      {"measurement": "λmax", "setting": "[1]; ethanol", "value": 536, "unit": "nm"},
      {"measurement": "Eox", "setting": "[2]", "value": 1.04},
      {"measurement": "Ered", "setting": "[2]", "value": "-.95"},
      {"measurement": "φf", "setting": "fluorescence (λf, φf)", "value": ".13"}
    ]},
    {"compound": "CCCCCCCC(=O)c1cc2cc3cc(I)c(=O)c(I)c-3oc2c(I)c1O", "note": "[Compound 17, 3-hydroxy-4,5,7-triiodo-2octanoyl-6-fluorone]", "values": [
      {"measurement": "λmax in EtOH (first value)", "setting": "[1]", "value": 538},
      {"measurement": "ε (first value)", "setting": "[1]", "value": "84,800"},
      {"measurement": "solubility in CDCl3", "setting": "solubility", "value": "almost no solubility"},
      {"measurement": "solubility in DMSO", "setting": "solubility; DMSO", "value": "poor solubility"}
    ]},
    {"compound": "O=C(O)CNc1ccccc1", "note": "[NPG, N-phenylglycine, reference compound]", "values": [
      {"measurement": "film speed", "setting": "film speed", "value": "improves"},
      {"measurement": "double bond conversion", "setting": "[3]", "value": "improves"},
      {"measurement": "Pencil hardness", "setting": "pencil hardness; addition of coinitiator to onium salt composition", "value": "improves"}
    ]},
    {"compound": "O=c1c(Br)cc2cc3cc(Br)c(O)c(Br)c3oc-2c1Br", "note": "[TBHF, 3-hydroxy-2,4,5,7-tetrabromo-6-fluorone]", "values": [
      {"measurement": "pKa", "setting": "pKa", "value": 3.28},
      {"measurement": "λmax in EtOH (first value)", "setting": "[1]", "value": 530},
      {"measurement": "ε (first value)", "setting": "[1]", "value": 39300},
      {"measurement": "λmax", "setting": "[1]; methanol", "value": 526, "unit": "nm"},
      {"measurement": "Eox", "setting": "[2]", "value": 1.099},
      {"measurement": "Ered", "setting": "[2]", "value": "-.95"},
      {"measurement": "φf", "setting": "fluorescence (λf, φf)", "value": ".52"},
      {"measurement": "λf", "setting": "fluorescence (λf, φf); MeOH", "value": 539, "unit": "nm"}
    ]},
    {"compound": "O=c1ccc2cc3ccc(O)cc3oc-2c1", "note": "[HF, 3-Hydroxy-6-fluorone]", "values": [
      {"measurement": "pKa", "setting": "pKa", "value": 5.97},
      {"measurement": "λmax in EtOH (first value)", "setting": "[1]", "value": 504},
      {"measurement": "ε (first value)", "setting": "[1]", "value": 24700},
      {"measurement": "λmax", "setting": "[1]; methanol", "value": 500, "unit": "nm"},
      {"measurement": "Eox", "setting": "[2]", "value": 1.34},
      {"measurement": "Ered", "setting": "[2]", "value": "-.99"},
      {"measurement": "φf", "setting": "fluorescence (λf, φf); 10^-7 M (footnote c)", "value": ".95"}
    ]},
    {"compound": "CCCCCCCC(=O)c1cc2c(C#N)c3cc(I)c(=O)c(I)c-3oc2c(I)c1O", "note": "[Compound 18, 9-cyano-3-hydroxy-4,5,7-triiodo-2-octanoyl-6-fluorone]", "values": [
      {"measurement": "λmax in EtOH (first value)", "setting": "[1]", "value": 636},
      {"measurement": "ε (first value)", "setting": "[1]", "value": "17,000"},
      {"measurement": "absorption wavelength", "setting": "[1]; comparison", "value": 638, "unit": "nm"},
      {"measurement": "solubility in CDCl3", "setting": "solubility", "value": "very good solubility"}
    ]}
  ]
}
